# Target: T1, Tyrosine-protein kinase receptor UFO (Homo sapiens, UniProt P30530)
# T1 sequence (P30530 whole entry): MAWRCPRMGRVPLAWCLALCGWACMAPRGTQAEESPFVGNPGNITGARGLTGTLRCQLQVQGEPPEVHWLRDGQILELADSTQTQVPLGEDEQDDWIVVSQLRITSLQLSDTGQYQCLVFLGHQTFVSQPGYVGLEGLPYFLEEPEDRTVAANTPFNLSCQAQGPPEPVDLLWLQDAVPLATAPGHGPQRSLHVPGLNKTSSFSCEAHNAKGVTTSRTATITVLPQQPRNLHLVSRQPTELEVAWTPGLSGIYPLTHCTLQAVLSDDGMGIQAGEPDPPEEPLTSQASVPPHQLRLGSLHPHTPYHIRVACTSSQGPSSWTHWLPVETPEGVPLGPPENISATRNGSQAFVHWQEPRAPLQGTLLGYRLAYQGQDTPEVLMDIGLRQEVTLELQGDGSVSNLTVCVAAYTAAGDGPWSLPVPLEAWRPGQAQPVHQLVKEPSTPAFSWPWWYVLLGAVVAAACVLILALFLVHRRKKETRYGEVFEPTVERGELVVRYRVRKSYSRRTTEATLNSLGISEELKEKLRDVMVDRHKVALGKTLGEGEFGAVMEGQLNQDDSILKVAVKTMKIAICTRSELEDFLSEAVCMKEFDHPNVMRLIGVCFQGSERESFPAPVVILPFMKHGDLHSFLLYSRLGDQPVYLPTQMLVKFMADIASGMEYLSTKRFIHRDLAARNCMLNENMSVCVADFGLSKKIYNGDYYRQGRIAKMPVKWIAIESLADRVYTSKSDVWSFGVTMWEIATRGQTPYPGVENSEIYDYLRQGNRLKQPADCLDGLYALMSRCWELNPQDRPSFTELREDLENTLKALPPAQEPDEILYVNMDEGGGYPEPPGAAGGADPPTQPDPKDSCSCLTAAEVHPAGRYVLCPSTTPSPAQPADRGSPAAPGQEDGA
# Test: Kinase Assay: The ability of compounds to inhibit the kinase activity of recombinant human baculovirus-expressed AXL was measured by homogeneous TRF (HTRF) using Cisbio's KinEASE assay system in white 384-well Optiplates. Assay buffer contained 1 mM DTT, 2 mM MnCl2, 2% DMSO, 50 nM supplement enzymatic buffer, and 1× enzymatic buffer. A 2× concentration of tyrosine kinase (TK) substrate-biotin/ATP mixture made in assay buffer was added to plates at 10 μL/well using the Multidrop Combi (Thermo Fisher Scientific, Waltham, Mass.). […] Compounds (100 nL), diluted in 100% DMSO on the Biomek FX, (Beckman Coulter, Inc., Brea, Calif.), were transferred to the assay plates using the Biomek FX pintool (2.5% final DMSO in assay). A 2× concentration (final=12 ng/mL) of GST-AXL (diluted in assay buffer) was added to plates at 10 uL/well using the Multidrop Combi. Plates were sealed, briefly shaken and incubated at 25° C. for 30 minutes. […] Plates were sealed, briefly shaken and incubated at 25° C. for 1 hour.
row,IC50 [nM],Structure (SMILES)
1,< 10,CCn1nc(C(=O)Nc2ccc(Oc3ccnc4cc(OC)c(OC)cc34)cn2)c(=O)n(-c2ccc(F)cc2)c1=O
2,< 10,CCn1cc(C(=O)Nc2ccc(Oc3ccnc4cc(OC)c(OC)cc34)c(Cl)c2)c(=O)n(-c2ccc(F)cc2)c1=O
3,< 10,C=CCn1cc(C(=O)Nc2ccc(Oc3ccnc4cc(OC)c(OC)cc34)c(F)c2)c(=O)n(CC=C)c1=O

# Reference: ChEMBL document CHEMBL5726364, “Uracil derivatives as AXL and c-MET kinase inhibitors” (2017)
